Biological target: recombinant human SAE enzyme (Homo sapiens (Human), UniProt Q9UBT2)
Experiment: SAE HTRF enzyme assay
Type: biochemical
Settings: for inhibition at 0.111 µM: read-out: Percent Inhibition
Summary of the method: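 First, recombinant human SAE (0.11 nM) transfers Sumo-Flag onto Ubc9-GST using 0.5 μM ATP for 105 min at 24° C. Next, EDTA-containing detection buffer with labelled anti-Flag and anti-GST antibodies is added for 2 h. Finally, FRET is quantified and percent inhibition or IC50 derived.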

[1] = SAE inhibition at compound concentration 0.111 μM
[2] = SAE inhibition, class symbols, legend in nM

recombinant human SAE enzyme, sequence (Q9UBT2 whole entry): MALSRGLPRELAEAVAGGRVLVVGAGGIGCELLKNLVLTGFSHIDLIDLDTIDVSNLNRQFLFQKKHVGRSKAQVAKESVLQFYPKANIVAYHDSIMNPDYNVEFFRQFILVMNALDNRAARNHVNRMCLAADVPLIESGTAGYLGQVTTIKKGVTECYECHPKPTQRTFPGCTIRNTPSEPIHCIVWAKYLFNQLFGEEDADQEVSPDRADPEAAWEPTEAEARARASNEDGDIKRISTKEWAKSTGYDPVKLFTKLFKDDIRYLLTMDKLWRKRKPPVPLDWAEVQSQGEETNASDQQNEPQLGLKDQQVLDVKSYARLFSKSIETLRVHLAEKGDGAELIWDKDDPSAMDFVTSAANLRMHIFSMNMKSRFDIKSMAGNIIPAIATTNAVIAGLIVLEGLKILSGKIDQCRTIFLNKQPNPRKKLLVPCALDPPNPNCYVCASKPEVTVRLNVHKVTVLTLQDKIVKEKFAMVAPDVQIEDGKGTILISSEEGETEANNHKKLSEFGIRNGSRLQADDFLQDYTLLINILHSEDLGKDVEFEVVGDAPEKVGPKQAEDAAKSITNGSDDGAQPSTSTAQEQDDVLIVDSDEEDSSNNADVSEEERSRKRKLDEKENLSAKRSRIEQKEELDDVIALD
recombinant human SAE enzyme, sequence (Q9UBE0 whole entry partner): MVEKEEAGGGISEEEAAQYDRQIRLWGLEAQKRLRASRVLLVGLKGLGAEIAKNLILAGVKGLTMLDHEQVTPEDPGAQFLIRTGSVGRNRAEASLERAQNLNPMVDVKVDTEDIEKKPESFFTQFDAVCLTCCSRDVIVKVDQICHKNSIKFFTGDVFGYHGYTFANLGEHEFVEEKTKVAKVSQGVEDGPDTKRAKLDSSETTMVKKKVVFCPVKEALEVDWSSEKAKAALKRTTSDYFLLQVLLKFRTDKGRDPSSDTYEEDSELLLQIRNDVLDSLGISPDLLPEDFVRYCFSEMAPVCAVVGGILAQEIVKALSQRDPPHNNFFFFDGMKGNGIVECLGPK

Compound | Percent Inhibition [1] | IC50 [2] | Percent Inhibition (Concentration 0.111 μM) | IC50 (class symbols A/B/C) | inhibition at 0.111 µM (Concentration 0.111 μM)
Cc1nc2c(s1)[C@H](c1cc(C(=O)c3cncnc3N[C@@H]3C[C@H](COS(N)(=O)=O)[C@@H](O)C3)sc1C)OCC2 (single isomer, unassigned) [I-305b, [(1R,2S,4R)-2-hydroxy-4-{[5-({5-methyl-4-[(4S)-2-methyl-6,7-dihydro-4H-pyrano[4,3-d][1,3]thiazol-4-yl]-2-thienyl}carbonyl)pyrimidin-4-yl]amino}cyclopentyl]methyl sulfamate or [(1R,2S,4R)-2-hydroxy-4-{[5-({5-methyl-4-[(4R)-2-methyl-6,7-dihydro-4H-pyrano[4,3-d][1,3]thiazol-4-yl]-2-thienyl}carbonyl)pyrimidin-4-yl]amino}cyclopentyl]methyl sulfamate] | 98% | < 10 nM | – | – | –
Cc1sc(C(=O)c2cncnc2N[C@@H]2C[C@H](COS(N)(=O)=O)[C@@H](O)C2)cc1[C@H](C)c1cccc(Cl)c1 (single isomer, unassigned) [I-135b, [(1R,2S,4R)-4-{[5-({4-[(1R)-1-(3-chlorophenyl)ethyl]-5-methyl-2-thienyl}carbonyl)pyrimidin-4-yl]amino}-2-hydroxycyclopentyl]methyl sulfamate or [(1R,2S,4R)-4-{[5-({4-[(1S)-1-(3-chlorophenyl)ethyl]-5-methyl-2-thienyl}carbonyl)pyrimidin-4-yl]amino}-2-hydroxycyclopentyl]methyl sulfamate] | – | – | 95 | < 10 nM | –
Cc1sc(C(=O)c2cncnc2N[C@@H]2C[C@H](COS(N)(=O)=O)[C@@H](O)C2)cc1Cn1cc(Cl)cn1 [I-55, [(1R,2S,4R)-4-{[5-({4-[(4-chloro-1H-pyrazol-1-yl)methyl]-5-methyl-2-thienyl}carbonyl)pyrimidin-4-yl]amino}-2-hydroxycyclopentyl]methyl sulfamate] | – | – | – | – | 97%
Cc1oc(C(=O)c2cncnc2N[C@@H]2C[C@H](COS(N)(=O)=O)[C@@H](O)C2)cc1[C@@H]1OCCc2ccc(Cl)cc21 (mixture of isomers) [I-270, {(1R,2S,4R)-4-[(5-{4-[(1R)-7-chloro-3,4-dihydro-1H-isochromen-1-yl]-5-methyl-2-furoyl}pyrimidin-4-yl)amino]-2-hydroxycyclopentyl}methyl sulfamate and {(1R,2S,4R)-4-[(5-{4-[(1S)-7-chloro-3,4-dihydro-1H-isochromen-1-yl]-5-methyl-2-furoyl}pyrimidin-4-yl)amino]-2-hydroxycyclopentyl}methyl sulfamate] | – | – | 99 | < 10 nM | –
[(1R,2S,4R)-2-hydroxy-4-({5-[(5-methyl-4-{(R)-[3-(trifluoromethyl)phenyl]sulfinyl}-2-thienyl)carbonyl]pyrimidin-4-yl}amino)cyclopentyl]methyl sulfamate and [(1R,2S,4R)-2-hydroxy-4-({5-[(5-methyl-4-{(S)-[3-(trifluoromethyl)phenyl]sulfinyl}-2-thienyl)carbonyl]pyrimidin-4-yl}amino)cyclopentyl]methyl sulfamate [I-69] | – | – | 100 | < 10 nM | –
NS(=O)(=O)OC[C@H]1C[C@@H](Nc2ncncc2C(=O)c2cc(CN3CCc4ccc(Cl)cc43)cs2)C[C@@H]1O [I-83, [(1R,2S,4R)-4-{[5-({4-[(6-chloro-2,3-dihydro-1H-indol-1-yl)methyl]-2-thienyl}carbonyl)pyrimidin-4-yl]amino}-2-hydroxycyclopentyl]methyl sulfamate] | – | – | – | < 10 nM | 98%
CC(O)(c1cccc(Cl)c1)c1csc(C(=O)c2cncnc2N[C@@H]2C[C@H](COS(N)(=O)=O)[C@@H](O)C2)c1 (single isomer, unassigned) [I-5b, [(1R,2S,4R)-4-{[5-({4-[(1R)-1-(3-chlorophenyl)-1-hydroxyethyl]-2-thienyl}carbonyl)pyrimidin-4-yl]amino}-2-hydroxycyclopentyl]methyl sulfamate or [(1R,2S,4R)-4-{[5-({4-[(1S)-1-(3-chlorophenyl)-1-hydroxyethyl]-2-thienyl}carbonyl)pyrimidin-4-yl]amino}-2-hydroxycyclopentyl]methyl sulfamate] | – | – | 100 | < 10 nM | –
NS(=O)(=O)OC[C@H]1C[C@@H](Nc2ncncc2C(=O)c2cc(Cc3cccc(Br)n3)c(Cl)s2)C[C@@H]1O [I-46, [(1R,2S,4R)-4-{[5-({4-[(6-bromopyridin-2-yl)methyl]-5-chloro-2-thienyl}carbonyl)pyrimidin-4-yl]amino}-2-hydroxycyclopentyl]methyl sulfamate] | – | – | – | – | 98%
Cc1sc(C(=O)c2cncnc2N[C@@H]2C[C@H](COS(N)(=O)=O)[C@@H](O)C2)cc1[C@@H]1OCCn2c1nc1ccccc12 (mixture of isomers) [I-344, [(1R,2S,4R)-4-{[5-({4-[(1S)-3,4-dihydro-1H-[1,4]oxazino[4,3-a]benzimidazol-1-yl]-5-methyl-2-thienyl}carbonyl)pyrimidin-4-yl]amino}-2-hydroxycyclopentyl]methyl sulfamate and [(1R,2S,4R)-4-{[5-({4-[(1R)-3,4-dihydro-1H-[1,4]oxazino[4,3-a]benzimidazol-1-yl]-5-methyl-2-thienyl}carbonyl)pyrimidin-4-yl]amino}-2-hydroxycyclopentyl]methyl sulfamate] | 99% | < 10 nM | – | – | –
Cc1sc(C(=O)c2cncnc2N[C@@H]2C[C@H](COS(N)(=O)=O)[C@@H](O)C2)cc1[C@H](O)c1cccc(Cl)c1 (single isomer, unassigned) [I-11a, [(1R,2S,4R)-4-{[5-({4-[(R)-(3-chlorophenyl)(hydroxy)methyl]-5-methyl-2-thienyl}carbonyl)pyrimidin-4-yl]amino}-2-hydroxycyclopentyl]methyl sulfamate or [(1R,2S,4R)-4-{[5-({4-[(S)-(3-chlorophenyl)(hydroxy)methyl]-5-methyl-2-thienyl}carbonyl)pyrimidin-4-yl]amino}-2-hydroxycyclopentyl]methyl sulfamate] | – | – | 93 | < 10 nM | –
CCc1ccccc1OCc1csc(C(=O)c2cncnc2N[C@@H]2C[C@H](COS(N)(=O)=O)[C@@H](O)C2)c1 [I-182, [(1R,2S,4R)-4-{[5-({4-[(2-ethylphenoxy)methyl]-2-thienyl}carbonyl)pyrimidin-4-yl]amino}-2-hydroxycyclopentyl]methyl sulfamate] | – | – | – | 10 to 100 nM | 82%
Cc1sc(C(=O)c2cncnc2N[C@@H]2C[C@H](COS(N)(=O)=O)[C@@H](O)C2)cc1[C@@]1(c2ccccc2)CCCO1 (mixture of isomers) [I-121, [(1R,2S,4R)-2-hydroxy-4-{[5-({5-methyl-4-[(2S)-2-phenyltetrahydrofuran-2-yl]-2-thienyl}carbonyl)pyrimidin-4-yl]amino}cyclopentyl]methyl sulfamate and [(1R,2S,4R)-2-hydroxy-4-{[5-({5-methyl-4-[(2R)-2-phenyltetrahydrofuran-2-yl]-2-thienyl}carbonyl)pyrimidin-4-yl]amino}cyclopentyl]methyl sulfamate] | – | – | 98 | < 10 nM | –
Cc1sc(C(=O)c2cncnc2N[C@@H]2C[C@H](COS(N)(=O)=O)[C@@H](O)C2)cc1[C@H](C)c1cccc(Cl)c1 (mixture of isomers) [I-135, [(1R,2S,4R)-4-{[5-({4-[(1R)-1-(3-chlorophenyl)ethyl]-5-methyl-2-thienyl}carbonyl)pyrimidin-4-yl]amino}-2-hydroxycyclopentyl]methyl sulfamate and [(1R,2S,4R)-4-{[5-({4-[(1S)-1-(3-chlorophenyl)ethyl]-5-methyl-2-thienyl}carbonyl)pyrimidin-4-yl]amino}-2-hydroxycyclopentyl]methyl sulfamate] | – | – | 94 | 10 to 100 nM | –
NS(=O)(=O)OC[C@H]1C[C@@H](Nc2ncncc2C(=O)c2cc(Cn3ccc4ccccc43)cs2)C[C@@H]1O [I-114, {(1R,2S,4R)-2-hydroxy-4-[(5-{[4-(1H-indol-1-ylmethyl)-2-thienyl]carbonyl}pyrimidin-4-yl)amino]cyclopentyl}methyl sulfamate] | – | – | – | < 10 nM | 97%
NS(=O)(=O)OC[C@H]1C[C@@H](Nc2ncncc2C(=O)c2cc([C@@H]3NCc4ccc(Cl)cc43)c(Cl)s2)C[C@@H]1O (single isomer, unassigned) [I-262a, [(1R,2S,4R)-4-{[5-({5-chloro-4-[(1R)-6-chloro-2,3-dihydro-1H-isoindol-1-yl]-2-thienyl}carbonyl)pyrimidin-4-yl]amino}-2-hydroxycyclopentyl]methyl sulfamate or [(1R,2S,4R)-4-{[5-({5-chloro-4-[(1S)-6-chloro-2,3-dihydro-1H-isoindol-1-yl]-2-thienyl}carbonyl)pyrimidin-4-yl]amino}-2-hydroxycyclopentyl]methyl sulfamate] | – | – | 98 | < 10 nM | –
COCc1sc(C(=O)c2cncnc2N[C@@H]2C[C@H](COS(N)(=O)=O)[C@@H](O)C2)cc1Cc1cccc(Cl)c1 [I-44, {(1R,2S,4R)-4-[(5-{[4-(3-chlorobenzyl)-5-(methoxymethyl)-2-thienyl]carbonyl}pyrimidin-4-yl)amino]-2-hydroxycyclopentyl}methyl sulfamate] | – | – | – | < 10 nM | 100%
NS(=O)(=O)OC[C@H]1C[C@@H](Nc2ncncc2C(=O)c2cc(Cl)c([C@H](O)c3cccc(Cl)c3)s2)C[C@@H]1O (single isomer, unassigned) [I-151a, [(1R,2S,4R)-4-{[5-({4-chloro-5-[(R)-(3-chlorophenyl)(hydroxy)methyl]-2-thienyl}carbonyl)pyrimidin-4-yl]amino}-2-hydroxycyclopentyl]methyl sulfamate or [(1R,2S,4R)-4-{[5-({4-chloro-5-[(S)-(3-chlorophenyl)(hydroxy)methyl]-2-thienyl}carbonyl)pyrimidin-4-yl]amino}-2-hydroxycyclopentyl]methyl sulfamate] | – | – | 80 | 10 to 100 nM | –

Reference: patent US10780090B2, “Heteroaryl compounds useful as inhibitors of SUMO activating enzyme” (Millennium Pharmaceuticals, Inc., priority 2014, dated 2020)
